Columns and labels:
[1] = system: PD1-ss+10aa/Gaussia Luciferase; assay: Dox-Induced PD1-ss-Gluc Assay; format: cell-based; settings: 24 hr Dox induction; 293FRT/TO cells; read-out: 24 hr Dox Inducible PD1ssGluc 293FRT/TO: Mean IC50
Outline: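 Compounds were added in DMSO/media with doxycycline and incubated at 37 °C, 5% CO2, on 293 T-REx cells plated one day earlier. These cells stably express, under tetracycline-regulated control, a Gaussia luciferase fused to the PD1 signal peptide plus 10 residues. Structures drawn without stereochemistry were tested as stereoisomer mixtures.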

[2] = system: TNFα-FL/Gaussia Luciferase; assay: Dox Induced TNFα-FL-Gluc Assay; format: cell-based; settings: for IC50: 24 hr Dox induction, 293FRT/TO cells, read-out: 24 hr Dox Inducible TNFaFLGluc 293FRT/TO: Mean IC50; for 24 hr Dox Inducible TNFaFLGluc 293FRT/TO: TNF/PD1: ratio of TNFaFLGluc IC50 to PD1ssGluc IC50
Outline: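 Stereoisomer mixtures were tested where stereochemistry is not drawn. Induction used doxycycline added together with compound dilutions in DMSO/media to Flp-In 293 T-REx cells carrying a T-REx-regulated TNFα (aa 1-233)-Gaussia luciferase construct, then incubated at 37 °C, 5% CO2.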

[3] = system: HER3-ss+4aa/Gaussia Luciferase; assay: Dox-Induced Her3-ss-Gluc Assay; format: cell-based; settings: 24 hr Dox induction; 293FRT/TO cells; read-out: 24 hr Dox Inducible Her3(ss + 4)Gluc 293FRT/TO: Mean IC50
Outline: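 Cells were seeded a day ahead, then given compound diluted in DMSO/media with doxycycline to induce expression of the HER3 signal sequence (+4 aa)–Gaussia luciferase fusion. Incubation was at 37° C., 5% CO2, in a stable Flp-In 293 T-REx line.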

[4] = system: IL-2-FL/Gaussia Luciferase; assay: Dox Induced IL2-FL-Gluc Assay; format: cell-based; settings: for IC50: 24 hr Dox induction, 293FRT/TO cells, read-out: 24 hr Dox Inducible IL2FLGluc 293FRT/TO: Mean IC50; for 24 hr Dox Inducible IL2FLGluc 293FRT/TO: IL2/PD1: ratio of IL2FLGluc IC50 to PD1ssGluc IC50
Outline: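 Cells are plated one day ahead, then receive compound dilutions in DMSO/media with doxycycline and incubate at 37° C, 5% CO2. They are Flp-In 293 T-REx cells expressing a full-length IL-2 (amino acids 1-153)–Gaussia luciferase fusion under T-REx control.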

[5] = system: multiple myeloma cell line NCI-H929; assay: H929 Cell Viability Assay; format: cell-based, human; settings: Homo sapiens, NCI-H929, 48 h, NCI-H929 cells, Celltiter-Glo
Outline: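 Luminescent ATP detection (CellTiter-Glo) after 48 hours of compound exposure measures viability. Cells were plated in RPMI 1640 containing 10% fetal bovine serum and kept at 37° C under 5% CO2.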

[6] = system: multiple myeloma cell line U266B1; assay: U266 Cell Viability Assay; format: cell-based, human; settings: Homo sapiens, U-266, 48 h, U266B1 cells, Celltiter-Glo
Outline: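 Steps: culture in RPMI 1640 plus 10% FBS and 2 mM glutamine; plate and add compound dilutions; incubate 48 hours at 37° C., 5% CO2; add CellTiter-Glo and quantify luciferase signal.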

[7] = Liver Microsome Stability Assay (rat); settings: rat liver microsomes, with NADPH, 1.0 uM compound
Method: (§1) Stability of a compound was assessed in the presence of liver microsomes from various sources—mouse, rat, monkey and human liver microsomes. 1.0 uM compound, 0.4% DMSO in 0.1 M Potassium Phosphate with 1.0 mg/mL liver microsomes, were incubated at 37° C. with or without 1 mM NADPH. The samples were quenched at 0, and 30 minutes.

[8] = Liver Microsome Stability Assay (mouse); settings: mouse liver microsomes, with NADPH, 1.0 uM compound
Method: as §1

[9] = Liver Microsome Stability Assay (human); settings: human liver microsomes, with NADPH, 1.0 uM compound
Method: as §1

[10] = Liver Microsome Stability Assay (monkey); settings: monkey liver microsomes, with NADPH, 1.0 uM compound
Method: as §1

CC(=O)Nc1ccc(N2CCC[C@@H]2c2csc(NC(=O)c3cccn3Cc3ccnc(F)c3)n2)cc1F [Compound A93, (R)-N-(4-(1-(4-acetamido-3-fluorophenyl)pyrrolidin-2-yl)thiazol-2-yl)-1-((2-fluoropyridin-4-yl)methyl)-1H-pyrrole-2-carboxamide]
IC50 [1]: 12.3 nM | IC50 [2]: 187 nM | 24 hr Dox Inducible TNFaFLGluc 293FRT/TO: TNF/PD1 [2]: 15.1 | IC50 [3]: 27.1 nM | IC50 [4]: 26.3 nM | 24 hr Dox Inducible IL2FLGluc 293FRT/TO: IL2/PD1 [4]: 2.1 | EC50 [5]: 390 nM | EC50 [6]: > 25000 nM | Liver Microsome Stability (Multiple Species): Rat - % Remaining after 30 min w/NADPH [7]: 0.11% | Liver Microsome Stability (Multiple Species): Mouse - % Remaining after 30 min w/NADPH [8]: 1.18% | Liver Microsome Stability (Multiple Species): Human - % Remaining after 30 min w/NADPH [9]: 4.24% | Liver Microsome Stability (Multiple Species): Monkey - % Remaining after 30 min w/NADPH [10]: 0.14%

[2H]c1c([2H])c([2H])c(N2CCC[C@@H]2c2csc(NC(=O)c3cccn3Cc3ccnc(F)c3)n2)c([2H])c1[2H] [Compound A94, (R)-1-((2-fluoropyridin-4-yl)methyl)-N-(4-(1-(phenyl-d5)pyrrolidin-2-yl)thiazol-2-yl)-1H-pyrrole-2-carboxamide]
IC50 [1]: 8.73 nM | IC50 [2]: 168 nM | 24 hr Dox Inducible TNFaFLGluc 293FRT/TO: TNF/PD1 [2]: 19.2 | IC50 [3]: 14.5 nM | IC50 [4]: 17.8 nM | 24 hr Dox Inducible IL2FLGluc 293FRT/TO: IL2/PD1 [4]: 2 | EC50 [5]: 642 nM | EC50 [6]: > 25000 nM | Liver Microsome Stability (Multiple Species): Rat - % Remaining after 30 min w/NADPH [7]: 12.8% | Liver Microsome Stability (Multiple Species): Mouse - % Remaining after 30 min w/NADPH [8]: 10.9% | Liver Microsome Stability (Multiple Species): Human - % Remaining after 30 min w/NADPH [9]: 11.1% | Liver Microsome Stability (Multiple Species): Monkey - % Remaining after 30 min w/NADPH [10]: 0.9%

[2H]c1cc([2H])cc(N2CCC[C@@H]2c2csc(NC(=O)c3cccn3Cc3ccnc(F)c3)n2)c1 [Compound A95, (R)-1-((2-fluoropyridin-4-yl)methyl)-N-(4-(1-(phenyl-3,5-d2)pyrrolidin-2-yl)thiazol-2-yl)-1H-pyrrole-2-carboxamide]
IC50 [1]: 8.34 nM | IC50 [2]: 133 nM | 24 hr Dox Inducible TNFaFLGluc 293FRT/TO: TNF/PD1 [2]: 15.9 | IC50 [3]: 14.8 nM | IC50 [4]: 18.6 nM | 24 hr Dox Inducible IL2FLGluc 293FRT/TO: IL2/PD1 [4]: 2.2 | EC50 [5]: 590 nM | EC50 [6]: > 25000 nM | Liver Microsome Stability (Multiple Species): Rat - % Remaining after 30 min w/NADPH [7]: 13.9% | Liver Microsome Stability (Multiple Species): Mouse - % Remaining after 30 min w/NADPH [8]: 10.2% | Liver Microsome Stability (Multiple Species): Human - % Remaining after 30 min w/NADPH [9]: 8.25% | Liver Microsome Stability (Multiple Species): Monkey - % Remaining after 30 min w/NADPH [10]: 0.88%

CC(=O)Nc1cc(F)c(N2CCC[C@@H]2c2csc(NC(=O)c3cccn3Cc3ccnc(F)c3)n2)c(F)c1 [Compound A96, (R)-N-(4-(1-(4-acetamido-2,6-difluorophenyl)pyrrolidin-2-yl)thiazol-2-yl)-1-((2-fluoropyridin-4-yl)methyl)-1H-pyrrole-2-carboxamide]
IC50 [1]: 1.49 nM | IC50 [2]: 40.5 nM | 24 hr Dox Inducible TNFaFLGluc 293FRT/TO: TNF/PD1 [2]: 27.2 | IC50 [3]: 4.2 nM | IC50 [4]: 4.21 nM | 24 hr Dox Inducible IL2FLGluc 293FRT/TO: IL2/PD1 [4]: 2.8 | EC50 [5]: 34.2 nM | EC50 [6]: > 25000 nM | Liver Microsome Stability (Multiple Species): Rat - % Remaining after 30 min w/NADPH [7]: 1% | Liver Microsome Stability (Multiple Species): Mouse - % Remaining after 30 min w/NADPH [8]: 0.28% | Liver Microsome Stability (Multiple Species): Human - % Remaining after 30 min w/NADPH [9]: 1.42% | Liver Microsome Stability (Multiple Species): Monkey - % Remaining after 30 min w/NADPH [10]: 0.12%

CC(=O)N1CCC(C)(Oc2ccc(N3CCC[C@@H]3c3csc(NC(=O)c4cccn4Cc4ccnc(F)c4)n3)cc2)CC1 [Compound A97, (R)-N-(4-(1-(4-((1-acetyl-4-methylpiperidin-4-yl)oxy)phenyl)pyrrolidin-2-yl)thiazol-2-yl)-1-((2-fluoropyridin-4-yl)methyl)-1H-pyrrole-2-carboxamide]
IC50 [1]: 18.8 nM | IC50 [2]: 162 nM | 24 hr Dox Inducible TNFaFLGluc 293FRT/TO: TNF/PD1 [2]: 8.64 | IC50 [3]: 22.1 nM | IC50 [4]: 32.8 nM | 24 hr Dox Inducible IL2FLGluc 293FRT/TO: IL2/PD1 [4]: 1.7 | EC50 [5]: 448 nM | EC50 [6]: > 25000 nM | Liver Microsome Stability (Multiple Species): Rat - % Remaining after 30 min w/NADPH [7]: 42.4% | Liver Microsome Stability (Multiple Species): Mouse - % Remaining after 30 min w/NADPH [8]: 0.22% | Liver Microsome Stability (Multiple Species): Human - % Remaining after 30 min w/NADPH [9]: 6.01% | Liver Microsome Stability (Multiple Species): Monkey - % Remaining after 30 min w/NADPH [10]: 0.4%

CC(=O)Nc1ccc(N2CCC[C@@H]2c2csc(NC(=O)c3cccn3Cc3ccnc(F)c3)n2)c(F)c1 [Compound A98, (R)-N-(4-(1-(4-acetamido-2-fluorophenyl)pyrrolidin-2-yl)thiazol-2-yl)-1-((2-fluoropyridin-4-yl)methyl)-1H-pyrrole-2-carboxamide]
IC50 [1]: 0.91 nM | IC50 [2]: 20.1 nM | 24 hr Dox Inducible TNFaFLGluc 293FRT/TO: TNF/PD1 [2]: 22.2 | IC50 [3]: 2.05 nM | IC50 [4]: 2.25 nM | 24 hr Dox Inducible IL2FLGluc 293FRT/TO: IL2/PD1 [4]: 2.5 | EC50 [5]: 22.4 nM | EC50 [6]: > 25000 nM | Liver Microsome Stability (Multiple Species): Rat - % Remaining after 30 min w/NADPH [7]: 1.18% | Liver Microsome Stability (Multiple Species): Mouse - % Remaining after 30 min w/NADPH [8]: 1.29% | Liver Microsome Stability (Multiple Species): Human - % Remaining after 30 min w/NADPH [9]: 2.43% | Liver Microsome Stability (Multiple Species): Monkey - % Remaining after 30 min w/NADPH [10]: 0.48%

CC(=O)Nc1c(F)cc(N2CCC[C@@H]2c2csc(NC(=O)c3cccn3Cc3ccnc(F)c3)n2)cc1F [Compound A99, (R)-N-(4-(1-(4-acetamido-3,5-difluorophenyl)pyrrolidin-2-yl)thiazol-2-yl)-1-((2-fluoropyridin-4-yl)methyl)-1H-pyrrole-2-carboxamide]
IC50 [1]: 127 nM | IC50 [2]: 5910 nM | 24 hr Dox Inducible TNFaFLGluc 293FRT/TO: TNF/PD1 [2]: 46.7 | IC50 [3]: 284 nM | IC50 [4]: 348 nM | 24 hr Dox Inducible IL2FLGluc 293FRT/TO: IL2/PD1 [4]: 2.8 | EC50 [5]: 5300 nM | EC50 [6]: > 25000 nM | Liver Microsome Stability (Multiple Species): Rat - % Remaining after 30 min w/NADPH [7]: 0.49% | Liver Microsome Stability (Multiple Species): Mouse - % Remaining after 30 min w/NADPH [8]: 1.28% | Liver Microsome Stability (Multiple Species): Human - % Remaining after 30 min w/NADPH [9]: 1.85% | Liver Microsome Stability (Multiple Species): Monkey - % Remaining after 30 min w/NADPH [10]: 0.12%

CC(=O)N1CCC(Oc2ccc(N3CCC[C@@H]3c3csc(NC(=O)c4cccn4Cc4ccnc(F)c4)n3)c(F)c2)CC1 [Compound A100, (R)-N-(4-(1-(4-((1-acetylpiperidin-4-yl)oxy)-2-fluorophenyl)pyrrolidin-2-yl)thiazol-2-yl)-1-((2-fluoropyridin-4-yl)methyl)-1H-pyrrole-2-carboxamide]
IC50 [1]: 22.8 nM | IC50 [2]: 195 nM | 24 hr Dox Inducible TNFaFLGluc 293FRT/TO: TNF/PD1 [2]: 8.57 | IC50 [3]: 32 nM | IC50 [4]: 34.2 nM | 24 hr Dox Inducible IL2FLGluc 293FRT/TO: IL2/PD1 [4]: 1.5 | EC50 [5]: 442 nM | EC50 [6]: > 25000 nM | Liver Microsome Stability (Multiple Species): Rat - % Remaining after 30 min w/NADPH [7]: 14.8% | Liver Microsome Stability (Multiple Species): Mouse - % Remaining after 30 min w/NADPH [8]: 3.12% | Liver Microsome Stability (Multiple Species): Human - % Remaining after 30 min w/NADPH [9]: 3.16% | Liver Microsome Stability (Multiple Species): Monkey - % Remaining after 30 min w/NADPH [10]: 0.24%

NCCOc1ccc(N2CCC[C@@H]2c2csc(NC(=O)c3cccn3Cc3ccnc(F)c3)n2)cc1 [Compound A101, (R)-N-(4-(1-(4-(2-aminoethoxy)phenyl)pyrrolidin-2-yl)thiazol-2-yl)-1-((2-fluoropyridin-4-yl)methyl)-1H-pyrrole-2-carboxamide]
IC50 [1]: 47.9 nM | IC50 [2]: 379 nM | 24 hr Dox Inducible TNFaFLGluc 293FRT/TO: TNF/PD1 [2]: 7.92 | IC50 [3]: 68.2 nM | IC50 [4]: 94.3 nM | 24 hr Dox Inducible IL2FLGluc 293FRT/TO: IL2/PD1 [4]: 2 | EC50 [5]: 1270 nM | EC50 [6]: 12800 nM | Liver Microsome Stability (Multiple Species): Rat - % Remaining after 30 min w/NADPH [7]: 76.5% | Liver Microsome Stability (Multiple Species): Mouse - % Remaining after 30 min w/NADPH [8]: 62.7% | Liver Microsome Stability (Multiple Species): Human - % Remaining after 30 min w/NADPH [9]: 2.2% | Liver Microsome Stability (Multiple Species): Monkey - % Remaining after 30 min w/NADPH [10]: 14.5%

Reference: patent US20230286973A1, “PROTEIN SECRETION INHIBITORS” (KEZAR LIFE SCIENCES, priority 2020, published 2023)
